Assay results from patent publication US10383909B2, “Use of a plant extract, pharmaceutical compositions and use thereof” (HEBRON FARMACEUTICA PESQUISA, DESENVOLVIMENTO E INOVACAO …, priority 2010, dated 2019).
Values joined by “and” are separate entries in the source; they are usually repeats but may differ in a detail not shown here. Identical values can stand only once.

How the values were obtained:
Format in all cases: in vivo, human
[1] = Esophagogastroduodenoscopy (EGD) before and after four weeks of treatment: gastritis present or absent; conditions: 2nd EGD after 28 days
Description: To evaluate the efficacy of hydroalcoholic extract of S. terebinthifolius in the form of a medication, 72 volunteer patients of both genders with diagnosed gastritis were selected. Anthropomorphic characteristics, such as age, weight and height were similar. The criteria for inclusion of patients in the sample were aged between 16 and 80 years (mean age was 40 years), with diagnosis of gastritis confirmed by endoscopy and pathological examination, and consent after clarification for study participation. We excluded patients who were treated with proton pump inhibitors, anti-inflammatory non-steroidal, H-2 receptor blockers and/or antacids during the month preceding the study. Patients included in the sample performed two esophagogastroduodenoscopy tests (EGD) with biopsy and analysis for Helicobacter pylori. The first test was made before the treatment, and the second, after four weeks (28 days) on medication. The protocol for administration of medications included: ingestion of one (1) the tablet based on Aroeira (about 233.60 mg) twice daily for four weeks (28 days), or the ingestion of 20 mg Omeprazole, two tablets twice daily for the same period. Classification with gradations and intensity of gastritis was based on the Sydney System. For data analysis, we used the Epi Info program, v.3.5.1, and Microsoft Excel 2007. Since they are categorical variables, Odds Ratios were evaluated and significant results were verified through a crude chi-squared test or with a Yates correction, when applicable, and alternatively the Fisher Exact Test when indicated. A Z test was also used to compare proportions when the expected frequencies were greater than or equal to 5. Confidence intervals were calculated for 95% confidence, with significant differences smaller than 5%.

[2] = Intensity of gastritis by histopathological examination before and after treatment (Sydney System)
Protocol: (§1) Patients included in the sample performed two esophagogastroduodenoscopy tests (EGD) with biopsy and analysis for Helicobacter pylori. The first test was made before the treatment, and the second, after four weeks (28 days) on medication. The protocol for administration of medications included: ingestion of one (1) the tablet based on Aroeira (about 233.60 mg) twice daily for four weeks (28 days), or the ingestion of 20 mg Omeprazole, two tablets twice daily for the same period. Classification with gradations and intensity of gastritis was based on the Sydney System. For data analysis, we used the Epi Info program, v.3.5.1, and Microsoft Excel 2007. Since they are categorical variables, Odds Ratios were evaluated and significant results were verified through a crude chi-squared test or with a Yates correction, when applicable, and alternatively the Fisher Exact Test when indicated. A Z test was also used to compare proportions when the expected frequencies were greater than or equal to 5. Confidence intervals were calculated for 95% confidence, with significant differences smaller than 5%.

[3] = test system: Helicobacter pylori; assay: Analysis for Helicobacter pylori in biopsy after treatment; conditions: after 28 days
Protocol: as §1, with “period.” for “period. Classification with gradations and intensity of gastritis was based on the Sydney System.”

[4] = Patient questionnaire on gastritis symptoms before and after treatment; conditions: gastritis patients, oral, four weeks (28 days)
Description: To evaluate the efficacy of hydroalcoholic extract of S. terebinthifolius in the form of a medication, 72 volunteer patients of both genders with diagnosed gastritis were selected. Anthropomorphic characteristics, such as age, weight and height were similar. The criteria for inclusion of patients in the sample were aged between 16 and 80 years (mean age was 40 years), with diagnosis of gastritis confirmed by endoscopy and pathological examination, and consent after clarification for study participation. We excluded patients who were treated with proton pump inhibitors, anti-inflammatory non-steroidal, H-2 receptor blockers and/or antacids during the month preceding the study.
The sample was randomly divided into two groups:
Group I—38 patients who used the medication based on Aroeira (Schinus terebinthifolius Raddi);
Group II—34 patients who used the drug Omeprazole (control group).
The protocol for administration of medications included: ingestion of one (1) the tablet based on Aroeira (about 233.60 mg) twice daily for four weeks (28 days), or the ingestion of 20 mg Omeprazole, two tablets twice daily for the same period.
For data analysis, we used the Epi Info program, v.3.5.1, and Microsoft Excel 2007. Since they are categorical variables, Odds Ratios were evaluated and significant results were verified through a crude chi-squared test or with a Yates correction, when applicable, and alternatively the Fisher Exact Test when indicated. A Z test was also used to compare proportions when the expected frequencies were greater than or equal to 5. Confidence intervals were calculated for 95% confidence, with significant differences smaller than 5%.
The results were obtained through a questionnaire completed by each patient, under the supervision of a specialist.

[5] = intensity before treatment Mild/Discrete
[6] = intensity before treatment Moderate

COc1ccc2[nH]c([S+]([O-])Cc3ncc(C)c(OC)c3C)nc2c1 (stereo not shown) [Omeprazole]
Gastritis Absent after treatment, % (disappearance of endoscopic mucosal injury) [1]: 0%
Gastritis Absent after treatment, N° of patients [1]: 0
Gastritis Present after treatment, % [1]: 100%
Gastritis Present after treatment, N° of patients [1]: 34
Intensity after treatment Mild/Discrete, % [2, 5]: 54.50%
Intensity after treatment Mild/Discrete, No. of patients [2, 5]: 12
Intensity after treatment Moderate, % [2, 5]: 45.5%
Intensity after treatment Moderate, N of patients [2, 5]: 10
Intensity after treatment Mild/Discrete, % (improvement) [2, 6]: 27.30%
Intensity after treatment Moderate, % [2, 6]: 72.70%
Intensity after treatment Moderate, N of patients [2, 6]: 8
H. pylori Absent after treatment, % (eradication rate) [3]: 9.4% and 9.38%
H. pylori Absent after treatment, N° of patients [3]: 3
H. pylori Present after treatment, % [3]: 90.63%
H. pylori Present after treatment, N° of patients [3]: 29
Percentage of improvement in symptoms after treatment: Abdominal discomfort relieved with meals [4]: 85.70%
Percentage of improvement in symptoms after treatment: Frequent epigastric pain [4]: 72.70%
Percentage of improvement in symptoms after treatment: Heartburn [4]: 71.40%
Percentage of improvement in symptoms after treatment: Nausea [4]: 72.20%
